Data reported in PubChem BioAssay (NCI).
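Where inhibition never reached the appropriate level, the endpoint shown equals the highest concentration tested. Otherwise, values were interpolated linearly from a five-concentration, 48-hour dose response in 96-well plates. At the GI50, growth is halved. TGI marks complete inhibition of growth.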

Key:
Test in all cases: DTP human tumour cell line panel, 48 h
MDA-MB-435 = system: MDA-MB-435
OVCAR-8 ovarian = system: OVCAR-8 ovarian
U251 CNS = system: U251 CNS
HS 578T breast = system: HS 578T breast
SF-295 CNS = system: SF-295 CNS
OVCAR-4 ovarian = system: OVCAR-4 ovarian
MALME-3M melanoma = system: MALME-3M melanoma
IGROV1 ovarian = system: IGROV1 ovarian
UACC-257 melanoma = system: UACC-257 melanoma
NCI-H522 lung = system: NCI-H522 lung
SNB-75 CNS = system: SNB-75 CNS
SN12C renal = system: SN12C renal
HCT-15 colon = system: HCT-15 colon
SK-OV-3 ovarian = system: SK-OV-3 ovarian
SF-539 CNS = system: SF-539 CNS
HCC-2998 colon = system: HCC-2998 colon
T-47D breast = system: T-47D breast
NCI-H226 lung = system: NCI-H226 lung
MOLT-4 leukemia = system: MOLT-4 leukemia
SK-MEL-5 melanoma = system: SK-MEL-5 melanoma
NCI/ADR-RES ovarian = system: NCI/ADR-RES ovarian
786-0 renal = system: 786-0 renal
CAKI-1 renal = system: CAKI-1 renal
TK-10 renal = system: TK-10 renal
UACC-62 melanoma = system: UACC-62 melanoma
DU-145 prostate = system: DU-145 prostate
HL-60(TB) leukemia = system: HL-60(TB) leukemia
K-562 leukemia = system: K-562 leukemia
MCF7 breast = system: MCF7 breast
SK-MEL-28 melanoma = system: SK-MEL-28 melanoma
HOP-92 NSCLC = system: HOP-92 NSCLC
NCI-H23 lung = system: NCI-H23 lung
EKVX NSCLC = system: EKVX NSCLC
BT-549 breast = system: BT-549 breast
KM12 colon = system: KM12 colon
SR leukemia = system: SR leukemia
OVCAR-3 ovarian = system: OVCAR-3 ovarian
HCT-116 colon = system: HCT-116 colon
OVCAR-5 ovarian = system: OVCAR-5 ovarian
PC-3 prostate = system: PC-3 prostate
M14 melanoma = system: M14 melanoma
A498 renal = system: A498 renal
SNB-19 CNS = system: SNB-19 CNS
SF-268 CNS = system: SF-268 CNS
MDA-MB-231 breast = system: MDA-MB-231 breast
COLO 205 colon = system: COLO 205 colon
HT29 colon = system: HT29 colon
A549 NSCLC = system: A549 NSCLC
UO-31 renal = system: UO-31 renal
RXF 393 renal = system: RXF 393 renal
HOP-62 NSCLC = system: HOP-62 NSCLC
SK-MEL-2 melanoma = system: SK-MEL-2 melanoma
NCI-H460 lung = system: NCI-H460 lung
ACHN renal = system: ACHN renal
RPMI-8226 leukemia = system: RPMI-8226 leukemia
SW-620 colon = system: SW-620 colon

With `C#Cc1cc(OC)c(C(=O)Nc2ccc(F)cc2C(=O)Nc2cccc(S(=O)(=O)C(F)(F)F)c2)cn1` the GI50 (MDA-MB-435) was 1750 nM, the TGI (MDA-MB-435) was over 23800 nM and the GI50 (OVCAR-8 ovarian) was 389 nM. For the same compound, the TGI (OVCAR-8 ovarian) was 4430 nM, the GI50 (U251 CNS) was 280 nM and the TGI (U251 CNS) was 840 nM. The GI50 (HS 578T breast) was 525 nM, the TGI (HS 578T breast) was 3140 nM and the GI50 (SF-295 CNS) was 176 nM. For the same compound, the TGI (SF-295 CNS) was 333 nM, the GI50 (OVCAR-4 ovarian) was 1980 nM and the TGI (OVCAR-4 ovarian) was over 26600 nM. For the same compound, the GI50 (MALME-3M melanoma) was 43.3 nM, the TGI (MALME-3M melanoma) was 130 nM and the GI50 (IGROV1 ovarian) was 20.8 nM. The TGI (IGROV1 ovarian) was 51.2 nM, the GI50 (UACC-257 melanoma) was 3030 nM and the TGI (UACC-257 melanoma) was over 83600 nM. It also gave a GI50 (NCI-H522 lung) of 60.6 nM, a TGI (NCI-H522 lung) of 237 nM and a GI50 (SNB-75 CNS) of 190 nM. For the same compound, the TGI (SNB-75 CNS) was 529 nM, the GI50 (SN12C renal) was 542 nM and the TGI (SN12C renal) was over 36700 nM. It also gave a GI50 (HCT-15 colon) of 629 nM, a TGI (HCT-15 colon) of 2680 nM and a GI50 (SK-OV-3 ovarian) of 205 nM. It also gave a TGI (SK-OV-3 ovarian) of 412 nM, a GI50 (SF-539 CNS) of 99.9 nM and a TGI (SF-539 CNS) of 252 nM. For the same compound, the GI50 (HCC-2998 colon) was 2100 nM, the TGI (HCC-2998 colon) was 4640 nM and the GI50 (T-47D breast) was 1730 nM. For the same compound, the TGI (T-47D breast) was 4300 nM, the GI50 (NCI-H226 lung) was 1720 nM and the TGI (NCI-H226 lung) was 8900 nM. It also gave a GI50 (MOLT-4 leukemia) of 322 nM, a TGI (MOLT-4 leukemia) of 1350 nM and a GI50 (SK-MEL-5 melanoma) of 1240 nM. It also gave a TGI (SK-MEL-5 melanoma) of 2880 nM, a GI50 (NCI/ADR-RES ovarian) of 52.1 nM and a TGI (NCI/ADR-RES ovarian) of 340 nM. The GI50 (786-0 renal) was 24.1 nM, the TGI (786-0 renal) was 63.3 nM and the GI50 (CAKI-1 renal) was 149 nM. The TGI (CAKI-1 renal) was 884 nM, the GI50 (TK-10 renal) was 5860 nM and the TGI (TK-10 renal) was over 100000 nM. For the same compound, the GI50 (UACC-62 melanoma) was 778 nM, the TGI (UACC-62 melanoma) was 2310 nM and the GI50 (DU-145 prostate) was 3250 nM. For the same compound, the TGI (DU-145 prostate) was over 100000 nM, the GI50 (HL-60(TB) leukemia) was 28.9 nM and the TGI (HL-60(TB) leukemia) was 84.5 nM. It also gave a GI50 (K-562 leukemia) of 666 nM, a TGI (K-562 leukemia) of over 100000 nM and a GI50 (MCF7 breast) of 727 nM. The TGI (MCF7 breast) was over 100000 nM, the GI50 (SK-MEL-28 melanoma) was 2840 nM and the TGI (SK-MEL-28 melanoma) was over 25800 nM. For the same compound, the GI50 (HOP-92 NSCLC) was 20.1 nM, the TGI (HOP-92 NSCLC) was 53.9 nM and the GI50 (NCI-H23 lung) was 101 nM. For the same compound, the TGI (NCI-H23 lung) was 559 nM, the GI50 (EKVX NSCLC) was 290 nM and the TGI (EKVX NSCLC) was 1100 nM. The GI50 (BT-549 breast) was 500 nM, the TGI (BT-549 breast) was 1850 nM and the GI50 (KM12 colon) was 299 nM. For the same compound, the TGI (KM12 colon) was 1540 nM, the GI50 (SR leukemia) was 21.6 nM and the TGI (SR leukemia) was 68.9 nM. It also gave a GI50 (OVCAR-3 ovarian) of 224 nM, a TGI (OVCAR-3 ovarian) of 576 nM and a GI50 (HCT-116 colon) of 417 nM. For the same compound, the TGI (HCT-116 colon) was over 100000 nM, the GI50 (OVCAR-5 ovarian) was 269 nM and the TGI (OVCAR-5 ovarian) was 1800 nM. It also gave a GI50 (PC-3 prostate) of 1520 nM, a TGI (PC-3 prostate) of 14500 nM and a GI50 (M14 melanoma) of 1270 nM. For the same compound, the TGI (M14 melanoma) was over 28400 nM, the GI50 (A498 renal) was 250 nM and the TGI (A498 renal) was 656 nM. For the same compound, the GI50 (SNB-19 CNS) was 1590 nM, the TGI (SNB-19 CNS) was 3550 nM and the GI50 (SF-268 CNS) was 285 nM. The TGI (SF-268 CNS) was 927 nM, the GI50 (MDA-MB-231 breast) was 117 nM and the TGI (MDA-MB-231 breast) was 596 nM. For the same compound, the GI50 (COLO 205 colon) was 1680 nM, the TGI (COLO 205 colon) was over 42700 nM and the GI50 (HT29 colon) was 447 nM. For the same compound, the TGI (HT29 colon) was 2500 nM, the GI50 (A549 NSCLC) was 1060 nM and the TGI (A549 NSCLC) was 5200 nM. The GI50 (UO-31 renal) was 17.5 nM, the TGI (UO-31 renal) was 44.9 nM and the GI50 (RXF 393 renal) was 337 nM. The TGI (RXF 393 renal) was 1190 nM, the GI50 (HOP-62 NSCLC) was 38.1 nM and the TGI (HOP-62 NSCLC) was 212 nM. For the same compound, the GI50 (SK-MEL-2 melanoma) was 2870 nM, the TGI (SK-MEL-2 melanoma) was 10600 nM and the GI50 (NCI-H460 lung) was 419 nM. The TGI (NCI-H460 lung) was 1690 nM, the GI50 (ACHN renal) was 205 nM and the TGI (ACHN renal) was 1670 nM. It also gave a GI50 (RPMI-8226 leukemia) of 174 nM, a TGI (RPMI-8226 leukemia) of 550 nM and a GI50 (SW-620 colon) of 1130 nM. It also gave a TGI (SW-620 colon) of 3420 nM.
